Assay [1] deals with calcium canals regulated by the intracellular calcium depot. Briefly: Histamine-induced calcium stream in SK-N-SH cells, Phase 2 (lowering of intracellular calcium concentration). Type of assay: cell-based. Particulars: Homo sapiens, 10 μM histamine, Fura 2 AM, Phase 2: discharge of intraplasmatic calcium. (In general: Calcium assays in cells follow changes in intracellular calcium, usually with a dye or a luminescent sensor.)

Assay [2] deals with BALB/c male mice. The experiment in a line: Passive Avoidance of Mice in a Shuttle Chamber, scopolamine or MK-801 (Example 8). Type of assay: in vivo. The following applies: scopolamine 0.3 mg/kg or MK-801 0.1 mg/kg. As for the experimental part: Example 7. […] A shuttle chamber (Ugo Basile, Italy) consisted of two sections was used. […] The sections were connected via a hole which could be shut with a vertical door. The floor was made of transverse metal bars on which DC current impulses could be fed. Experiments were carried out on aged male mice of line BALB/c weighing 20-24 grams.
On the first day of the experiment 30 minutes before training the mice were injected intraintestinally with physiological solution of scopolamine (0.3 mg/kg) or scopolamine in combination with antagonists of 5-HT6 receptors 1.2.1(2)HCl, 1.2.1(4)HCl or 1.2.1(5)HCl. Each group consisted of at least 8 animals. The animals were placed in the light section, and the latent period of the first entry into the dark chamber was registered. Then the vertical door was closed and the animal was punished by 0.6 mA DC current for 3 seconds. After that the animal was carried back to its living cell. In 22-24 hours the same animal was placed in the light section of the shuttle chamber once again and the latent period before its entry into the dark section, the total time of its stay in the light section and the number of entries into the dark section were registered. Each observation lasted for 5 minutes.
The experiment was carried out in the same way as in example 7. On the first day 30 minutes before training the mice were injected intra-intestinally with a physiological solution of scopolamine (0.3 mg/kg) or MK-801(0.1 mg/kg).

In assay [3] the test system is BALB/c male mice. Briefly: Training Mice in the Morris Water labyrinth, scopolamine. The class given is in vivo. The following applies: scopolamine 0.6 mg/kg; 1.2.1(5)HCl 0.1 mg/kg, 1.2.1(1)HCl 1 mg/kg, tacrine 3 mg/kg. On the procedure:
A circular pool of 100 cm diameter and of 30 cm sides was used. It was filled with water at 20-22° C. A circular ceramic platform of 14 cm height was placed in the pool. The behavior of the animals was registered using an automated computer video system in addition with software package of movement analyzer Any-maze (Stoelting Colo., US). The experiments were carried out on aged male mice of BALB/c line weighing 20-24 grams. Before the experiments mice fit for learning were selected. This was done by placing the platform 1 cm above the water level and putting an animal on the platform for 20 seconds. Then the mouse was put in the water on the opposite side of the pool and allowed to find the platform and climb onto it for 60 seconds, where it was left for additional 20 seconds. After that the mouse was repeatedly immersed in the water on the opposite side of the pool and allowed to search for the platform. If it failed in finding the platform within 60 seconds the experimentator helped it to find the platform and climb onto it. If the mice couldn't find the platform itself in two consecutive attempts it was excluded from the experiment. During the next two days the platform was placed 0.5 centimeters lower the water level. Every day the mice were given four attempts for finding the platform within 60 seconds. The time interval between the attempts was 20 seconds, during which the mice stayed on the platform. Every day before the first attempt the mice was placed on the platform for 20 seconds. The time needed for finding and climbing the platform was registered. The animals were sunk in water in two different places on the side of the pool opposite to the platform. […] The animals of the control group were injected with physiological solution. At least 8 animals were used in each group. On the third day the platform was removed and each animal was placed in the pool once for a period of 60 seconds. The time each mouse spent in the area where the platform had been located during the previous days was registered. […]

The next assay concerns SHK male mice. The experiment in a line: Recognition of New Objects by Mice Under Scopolamine and MK-801. Type of assay: in vivo. The following applies: scopolamine 1 mg/kg and MK-801 0.2 mg/kg. As for the experimental part:
The experiments were carried out in a closed cross shaped labyrinth which consisted of 4 peripheral sections connected with the central chamber via a 7×7 cm hole. The labyrinth was made of black plastic and its sections were of 14×14×14 cm size. The top cover of the labyrinth was transparent.
A mouse was placed in the central section of the labyrinth and allowed to investigate the environment. A mouse was considered to have entered a section once all of its four paws were inside the chamber. A test was considered to be completed when the mouse had moved 12 times between the sections, having made a total of 13 visits. The floor of the labyrinth was cleaned after each animal.
With each mouse the test was carried out twice with 1 hour interval.
During the first test, each section of the labyrinth contained a circular plastic cup of 3 cm height and 7 cm diameter. During the second test the cover in each of the two opposing sections was replaced by a conical glass bulb of 7 cm height and 4 cm across the bottom. The time that the mice spent in each section of the labyrinth was registered and the index of new object recognition was calculated as the ratio of the time spent in the sections with the bulbs to the time spent in all sections of the labyrinth. If no preference is given to the sections with new objects the index is 0.5.
When new objects appear the mice spend more time in the section containing them that results in an increased recognition index. Scopolamine (1 mg/kg) and MK-801 (0.2 mg/kg) disturbed learning (memory) that leads to lowering of the recognition index.

Assay [4] concerns BALB/c male mice. Briefly: Mice Behavior an Elevated Cross Shaped Labyrinth. The class given is in vivo. The following applies: preference index for open sections, number of defecations. The text has this:
The length of each section in the labyrinth is 30 cm, the width is 5 cm, the height of the walls is 15 cm. Two opposite sections are closed by transparent walls on the sides and on the butt ends, the other two sections are lit and opened. A mouse was placed in the center of the labyrinth and for the next five minutes the number of entries the open and closed sections and the time spent in each type of section was registered. […] The animals usually avoid the open sections (the preference index is between 0.2 and 0.3).

Assay [5] relates to BALB/c male mice. Briefly: Passive Avoidance of Mice in a Shuttle Chamber, memory disturbed by scopolamine (Example 7). Type of assay: in vivo. The following applies: scopolamine 0.3 mg/kg, injected 30 minutes before training. On the procedure: Example 7. […] A shuttle chamber (Ugo Basile, Italy) consisted of two sections was used. […] The sections were connected via a hole which could be shut with a vertical door. The floor was made of transverse metal bars on which DC current impulses could be fed. Experiments were carried out on aged male mice of line BALB/c weighing 20-24 grams. […] Each group consisted of at least 8 animals. The animals were placed in the light section, and the latent period of the first entry into the dark chamber was registered. Then the vertical door was closed and the animal was punished by 0.6 mA DC current for 3 seconds. After that the animal was carried back to its living cell. In 22-24 hours the same animal was placed in the light section of the shuttle chamber once again and the latent period before its entry into the dark section, the total time of its stay in the light section and the number of entries into the dark section were registered. Each observation lasted for 5 minutes. The experiment was carried out during the day time in an isolated laboratory using white noise at a level of about 70 decibel above the human hearing threshold. Scopolamine causes the disturbance of training (memory loss) which results in […]. The fact that 5-HT6 receptor antagonists can improve the learning ability that has been disturbed by scopolamine is regarded as evidence for their nootropic effect.

Results on five molecules are retold here after patent publication US20190233409A1, “SUBSTITUTED 2,3,4,5-TETRAHYDRO-1H-PYRIDO[4,3-B]INDOLES, METHODS FOR USE THEREOF” (priority 2017, published 2019).

Molecules are shown by their SMILES.

As a reminder, the EC50 is the concentration needed to bring the measured effect to its halfway point.

For `Cc1ccc2c(c1)c1c(n2CCc2ccccc2)CCN(C)C1.Cl` [1.2.1(1)HCl, 2,8-dimethyl-5-(2-phenylethyl)-2,3,4,5-tetrahydro-1H-pyrido[4,3-b]indole hydrochloride], in assay [1], the EC50 was 0.15 µM. Besides, the “nootropic action (passive avoidance, FIGS. 5-10)” value in the assay with BALB/c male mice [2] is recorded as “highest activity”. The “improvement of mice's training (Morris water labyrinth, FIGS. 11-12)” value (“improvement of mice's training” below) with BALB/c male mice [3] is “statistically significant improvement of mice's training”. The “nootropic action (new object recognition, FIG. 13-14)” value with SHK male mice was “nootropic action, the level of which is the most prominent”. Also, the “tranquilizing action (elevated cross shaped labyrinth, figure 19-21)” value (from here on “tranquilizing action”) in the assay on BALB/c male mice [4] was “exhibit a tranquilizing action, which is the most prominent”.

As to `Cc1ccc2c(c1)c1c(n2CCc2ccc(C)nc2)CCN(C)C1.Cl` [1.2.1(5)HCl, 2,8-dimethyl-5-[2-(6-methylpyridin-3-yl)ethyl]-2,3,4,5-tetrahydro-1H-pyrido[4,3-b]indole hydrochloride], in assay [1], the EC50 was determined as 1.58 µM. Also, in the assay on BALB/c male mice [5], the “nootropic action (passive avoidance, FIGS. 2-4)” value is reported as “exhibit a nootropic action”. Also, in the assay on BALB/c male mice [2], the “nootropic action (passive avoidance, FIGS. 5-10)” value was “exhibit a nootropic action”. In addition, the “improvement of mice's training” value in the assay on BALB/c male mice [3] was “statistically significant improvement of mice's training”. In addition, the “nootropic action (new object recognition, FIG. 13-14)” value in the assay with SHK male mice is on record as “nootropic action”. Further, in the assay with BALB/c male mice [4], the “tranquilizing action” value is “exhibit a tranquilizing action”.

With `O=C1CC2(CCCC2)CC(=O)N1CCCCN1CCN(c2ncccn2)CC1` [Buspiron], the “tranquilizing action” value with BALB/c male mice [4] is recorded as “exhibit a tranquilizing action”.

Consider `O=S(=O)(c1ccccc1)c1cnc2c(N3CCNCC3)cccc2c1` [SB-742457], for which, in the assay on BALB/c male mice [2], the “nootropic action (passive avoidance, FIGS. 5-10)” value was “inactive”. The “nootropic action (new object recognition, FIG. 13-14)” value in the assay on SHK male mice is reported as “nootropic action”.

For the molecule `Nc1c2c(nc3ccccc13)CCCC2` [tacrine], the “improvement of mice's training” value in the assay on BALB/c male mice [3] is recorded as “statistically significant improvement of mice's training”.
